Consider 63 compounds from US20100022521A1, “COMPOUNDS” (Hansa Metallwerke AG, priority 2005, published 2010).

For the assay, the target named is mGluR5 (UniProt P31424). The experiment in a line: MGluR5 receptor binding test ([3H]-M-MPEP displacement). Further details: species or system rat. As to conditions: radioligand [3H]-M-MPEP (2 nM); species not given; read-out: mGlu5 Ki. As to the method:
MGluR5 Receptor Binding Tests
Rat cerebro-cortical membrane preparation was used to determine the binding characteristics of reference compounds and novel compounds to the rat mGluR5. The A18 cell line expressing hmGluR5a (purchased from Euroscreen) was used to determine binding characteristics of the chemical compounds to the human mGluR5a receptor. As radioligand [3H]-M-MPEP (2 nM) was used. The nonspecific binding was determined in the presence of 10 μM M-MPEP.
On to `O=S(=O)(c1ccccc1Cl)c1sc2ncccc2c1-c1ccc(Cl)cc1` [Compound 6], for which the Ki was in the range of 500 to 1500 nM.

As to `CC1CCN(S(=O)(=O)c2sc3ncccc3c2-c2ccc(Cl)cc2)CC1` [Compound 20, 3-(4-Chlorophenyl)-2-(4-methyl-piperidine-1-sulfonyl)-thieno[2,3-b]pyridine], the Ki fell in the range of 500 to 1500 nM.

In the case of `Cc1cccc(S(=O)(=O)c2sc3ncccc3c2-c2ccc(Cl)cc2)c1` [Compound 22], the Ki is under 500 nM. With `Cc1ccc(S(=O)(=O)c2sc3ncccc3c2-c2ccc(F)cc2)cc1Cl` [Compound 23], the Ki was under 500 nM. Consider `Cc1ccc(S(=O)(=O)c2sc3ncccc3c2-c2ccc(F)cc2)cc1C` [Compound 24], for which the Ki is under 500 nM. The same measure for `O=S(=O)(c1ccc(Br)cc1)c1sc2ncccc2c1-c1ccc(Cl)cc1` [Compound 25]: under 500 nM; for `Cc1ccc(-c2c(S(=O)(=O)c3cccc(C)c3)sc3ncccc23)cc1` [Compound 26]: under 500 nM. In the case of `Cc1ccc(-c2c(S(=O)(=O)c3ccc(C)cc3)sc3ncccc23)cc1` [Compound 27], the Ki is under 500 nM. In the case of `N#Cc1cccc(S(=O)(=O)c2sc3ncccc3c2-c2ccc(F)cc2)c1` [Compound 29], the Ki is under 500 nM. The same measure for `N#Cc1cc(F)cc(S(=O)(=O)c2sc3ncccc3c2-c2ccc(F)cc2)c1` [Compound 30]: under 500 nM; for `O=S(=O)(c1cccc(F)c1)c1sc2ncccc2c1-c1ccc(Cl)cc1` [Compound 31]: under 500 nM. Consider `CC1CCCN(c2c(S(=O)(=O)c3cccc(C#N)c3)sc3ncccc23)C1` (stereo not drawn) [Compound 32], for which the Ki is under 500 nM. The same measure for `O=S(=O)(c1cc(F)cc(C(F)(F)F)c1)c1sc2ncccc2c1-c1ccc(Cl)cc1` [Compound 34]: under 500 nM; for `Cc1ccc(-c2c(S(=O)(=O)c3cccc(Cl)c3)sc3ncccc23)cc1` [Compound 37]: under 500 nM. `Cc1ccc(S(=O)(=O)c2sc3ncccc3c2-c2ccc(Cl)cc2)cc1F` [Compound 39]: the Ki is under 500 nM.

Regarding `O=S(=O)(c1ccc(Cl)cc1)c1sc2ncccc2c1-c1ccc(Cl)c(Cl)c1` [Compound 41], the Ki was under 500 nM. Regarding `N#Cc1ccc(S(=O)(=O)c2sc3ncccc3c2-c2cccc(Cl)c2)cc1` [Compound 42], the inhibitory constant (Ki) is under 500 nM. The same measure for `O=S(=O)(c1ccc(Cl)cc1)c1sc2nc(Cl)ccc2c1-c1ccc(Cl)cc1` [Compound 43, 6-chloro-2-(4-chloro-benzenesulfonyl)-3-(4-chloro-phenyl)-thieno[2,3-b]pyridine]: under 500 nM; for `Cc1cc(C)cc(S(=O)(=O)c2sc3ncccc3c2-c2ccc(Cl)cc2)c1` [Compound 44]: under 500 nM. For the compound `O=S(=O)(c1ccc(Br)s1)c1sc2ncccc2c1-c1ccc(Cl)cc1` [Compound 45], the Ki was under 500 nM.

With `O=S(=O)(c1ccc(Cl)cc1)c1sc2ncccc2c1N1CCOCC1` [Compound 46], the Ki was under 500 nM. The value for `CN(C)c1ccc2c(-c3ccc(Cl)cc3)c(S(=O)(=O)c3ccc(Cl)cc3)sc2n1` [Compound 47, 2-(4-Chloro-benzenesulfonyl)-3-(4-chloro-phenyl)-6-dimethylamino-thieno[2,3-b]pyridine] was 500 to 1500 nM; that for `Nc1ccc2c(-c3ccc(Cl)cc3)c(S(=O)(=O)c3ccc(Cl)cc3)sc2n1` [Compound 49, 6-Amino-2-(4-chloro-benzenesulfonyl)-3-(4-chloro-phenyl)-thieno[2,3-b]pyridine] was under 500 nM. The value for `Cc1cccc(S(=O)(=O)c2sc3nc(Cl)ccc3c2-c2ccc(Cl)cc2)c1` [Compound 50] was under 500 nM; that for `N#Cc1cccc(S(=O)(=O)c2sc3nc(Cl)ccc3c2-c2ccc(Cl)cc2)c1` [Compound 51] was over 1500 nM. Consider `O=S(=O)(c1cccc(Cl)c1)c1sc2ncccc2c1-c1ccc(F)cc1` [Compound 54], for which the Ki was under 500 nM.

Turning to `Cc1ccc(S(=O)(=O)c2sc3ncccc3c2-c2ccc(F)cc2)cc1` [Compound 55], the Ki is under 500 nM. The value for `Cc1cc(C)c(S(=O)(=O)c2sc3ncccc3c2-c2ccc(Cl)cc2)c(C)c1` [Compound 56] was over 1500 nM; that for `O=S(=O)(c1ccc(Cl)cc1)c1sc2nccc(Cl)c2c1-c1ccc(Cl)cc1` [Compound 57, 4-Chloro-2-(4-chloro-benzenesulfonyl)-3-(4-chloro-phenyl)-thieno[2,3-b]pyridine] was under 500 nM; that for `O=S(=O)(c1ccc(Cl)cc1)c1sc2nc(F)ccc2c1-c1ccc(Cl)cc1` [Compound 58] was under 500 nM. In the case of `O=S(=O)(c1ccc(Cl)cc1)c1sc2ncccc2c1-c1cccc(Cl)c1` [Compound 60], the Ki is under 500 nM. As for `Cc1cccc(S(=O)(=O)c2sc3ncccc3c2-c2ccc(F)cc2)c1` [Compound 61], the Ki was under 500 nM.

For the compound `Cc1ccc(S(=O)(=O)c2sc3ncccc3c2-c2ccc(Cl)cc2)cc1C` [Compound 62], the Ki was under 500 nM. The value for `Cc1ccc(S(=O)(=O)c2sc3ncccc3c2-c2ccc(Cl)cc2)cc1Cl` [Compound 63] was under 500 nM; that for `COc1ccc2c(-c3ccc(Cl)cc3)c(S(=O)(=O)c3cccc(C#N)c3)sc2n1` [Compound 64, 2-(3-Cyano-benzenesulfonyl)-3-(4-chloro-phenyl)-6-methoxy-thieno[2,3-b]pyridine] was under 500 nM; that for `N#Cc1cccc(S(=O)(=O)c2sc3nc(F)ccc3c2-c2ccc(Cl)cc2)c1` [Compound 65] was under 500 nM. For the compound `N#Cc1cccc(-c2c(S(=O)(=O)c3cccc(C#N)c3)sc3ncccc23)c1` [Compound 66], the Ki is under 500 nM. With `O=S(=O)(c1ccc(C(F)(F)F)cc1)c1sc2ncccc2c1-c1ccc(Cl)cc1` [Compound 68], the Ki is under 500 nM.

As for `N#Cc1ccc(-c2c(S(=O)(=O)c3cccc(C#N)c3)sc3ncccc23)cc1` [Compound 69], the Ki is under 500 nM.

With `COc1cccc(S(=O)(=O)c2sc3ncccc3c2-c2ccc(Cl)cc2)c1` [Compound 70], the Ki is under 500 nM. Consider `CN(C)c1ccc(S(=O)(=O)c2sc3ncccc3c2-c2ccc(Cl)cc2)cc1` [Compound 71], for which the Ki was under 500 nM. The same measure for `O=[N+]([O-])c1cnc2sc(S(=O)(=O)c3ccc(Cl)cc3)c(-c3ccc(Cl)cc3)c2c1` [Compound 72, 2-(4-chloro-benzenesulfonyl)-3-(4-chloro-phenyl)-5-nitro-thieno[2,3-b]pyridine]: 500 to 1500 nM. The same measure for `N#Cc1cccc(S(=O)(=O)c2sc3ncccc3c2-c2ccncc2)c1` [Compound 73]: under 500 nM; for `N#Cc1cccc(S(=O)(=O)c2sc3nc(Cl)ccc3c2-c2ccc(F)cc2)c1` [Compound 74]: under 500 nM; for `O=S(=O)(c1cccc(F)c1)c1sc2nc(Cl)ccc2c1-c1ccc(Cl)cc1` [Compound 76]: 500 to 1500 nM. The same measure for `O=S(=O)(c1cccc(F)c1)c1sc2nc(F)ccc2c1-c1ccc(Cl)cc1` [Compound 77]: under 500 nM; for `Cc1ccc(S(=O)(=O)c2sc3nc(Cl)ccc3c2-c2ccc(Cl)cc2)cc1F` [Compound 81]: under 500 nM.

Consider `COc1ccc(-c2c(S(=O)(=O)c3cccc(C#N)c3)sc3ncccc23)cc1` [Compound 84], for which the Ki was under 500 nM. With `CS(=O)(=O)Nc1cnc2sc(S(=O)(=O)c3ccc(Cl)cc3)c(-c3ccc(Cl)cc3)c2c1` [Compound 85, N-[2-(4-Chloro-benzenesulfonyl)-3-(4-chloro-phenyl)-thieno[2,3-b]pyridin-5-yl]-methanesulfonamide], the Ki was under 500 nM. For the compound `N#Cc1cc(F)cc(S(=O)(=O)c2sc3nc(Cl)ccc3c2-c2ccc(Cl)cc2)c1` [Compound 86, 2-(3-Cyano-5-fluoro-benzenesulfonyl)-3-(4-chloro-phenyl)-6-chloro-thieno[2,3-b]pyridine], the Ki was under 500 nM.

As for `O=S(=O)(c1cc(F)cc(F)c1)c1sc2ncccc2c1-c1ccc(Cl)cc1` [Compound 87], the Ki was under 500 nM. For the compound `CC(C)c1ccc(S(=O)(=O)c2sc3ncccc3c2-c2ccc(Cl)cc2)cc1` [Compound 88], the Ki was under 500 nM. The same measure for `O=S(=O)(c1ccc(Cl)cc1)c1sc2ncccc2c1N1CCC(C(F)(F)F)CC1` [Compound 92]: under 500 nM; for `N#CC1CCN(c2c(S(=O)(=O)c3ccc(Cl)cc3)sc3ncccc23)CC1` [Compound 93]: 500 to 1500 nM. The same measure for `CC1CCN(c2c(S(=O)(=O)c3ccc(Cl)cc3)sc3ncccc23)CC1` [Compound 94]: under 500 nM; for `CC1CCN(c2cc(C#N)cc(S(=O)(=O)c3sc4ncccc4c3N3CCC(C)CC3)c2)CC1` [Compound 95]: 500 to 1500 nM; for `CC1CCN(c2c(S(=O)(=O)c3cc(F)cc(C#N)c3)sc3ncccc23)CC1` [Compound 96]: under 500 nM. The value for `O=S(=O)(c1ccc(Cl)cc1)c1sc2ncc(Cl)cc2c1-c1ccc(Cl)cc1` [Compound 97, 5-Chloro-2-(4-chloro-benzenesulfonyl)-3-(4-chloro-phenyl)-thieno[2,3-b]pyridine] was under 500 nM; that for `O=S(=O)(c1ccc(Cl)cc1)c1sc2ncccc2c1N1CCCC(O)C1` (stereo not drawn) [Compound 98] was under 500 nM.

Regarding `O=S(=O)(c1ccc(Cl)cc1)c1sc2ncccc2c1N1CCC(O)CC1` [Compound 99], the Ki lay within 500 to 1500 nM. Consider `CN(C)c1c(S(=O)(=O)c2ccc(Cl)cc2)sc2ncccc12` [Compound 100], for which the Ki was under 500 nM. For the compound `COc1ccnc2sc(S(=O)(=O)c3ccc(Cl)cc3)c(-c3ccc(Cl)cc3)c12` [Compound 101, 2-(4-chloro-benzenesulfonyl)-3-(4-chloro-phenyl)-4-methoxy-thieno[2,3-b]pyridine], the Ki is under 500 nM. The same measure for `O=S(=O)(c1ccc(Cl)cc1)c1sc2nccc(F)c2c1-c1ccc(Cl)cc1` [Compound 102, 4-Fluor-2-(4-chloro-benzenesulfonyl)-3-(4-chloro-phenyl)-thieno[2,3-b]pyridine]: under 500 nM.
